Test results: patent US4966900A, “Cephalosporin β-lactam compound and medicinal composition” (priority 1986, dated 1990)
≈ marks a conversion by molar mass, not a printed value.

Key:
Assay in all cases: MIC
C. freundii 1U589 = details: Citrobacter freundii, 1U589
C. freundii 1R526 = details: Citrobacter freundii, 1R526
E. cloacae 908RN = details: Enterobacter cloacae, E. colacae 908RN, Table 7
S. aureus Smith = details: Staphylococcus aureus, Table 7
P. aeruginosa 4au542 = details: Pseudomonas aeruginosa, 4AU542, P. aeruginosa 4au542; Table 7
C. freundii 1R524 = details: Citrobacter freundii, 1R524
P. aeruginosa 5D58-1 = details: Pseudomonas aeruginosa, 5D581, P. aeruginosa 5D58-1; Table 7
K. pneumoniae 4at521 = details: Klebsiella pneumoniae, 4AT521
P. cepacia OF189 = details: Burkholderia cepacia, OF189, P. cepacia OF189; Table 7
P. vulgaris GN7919 = details: Proteus vulgaris, GN7919
P. maltophilia OF247 = details: Stenotrophomonas maltophilia, Table 7
E. cloacae 5D63-2 = details: Enterobacter cloacae, 5D632
S. marcescens GN10857 = details: Serratia marcescens, GN10857, S. marcescens GN10857; Table 7
C. freundii GN7391 = details: Citrobacter freundii, GN7391, C. freundii GN7391; Table 7
C. freundii 1R527 = details: Citrobacter freundii, 1R527
C. freundii 1U692 = details: Citrobacter freundii, 1U692
C. freundii 5D60-1 = details: Citrobacter freundii, 5D601
E. coli GN5482 = details: Escherichia coli, GN5482, E. coli GN5482; Table 7
P. aeruginosa GN10362 = details: Pseudomonas aeruginosa, GN10362
E. coli ML4707 = details: Escherichia coli, ML4707, E. coli ML4707; Table 7
E. cloacae 1V25 = details: Enterobacter cloacae
E. cloacae 5D52-2 = details: Enterobacter cloacae, 5D522
C. freundii 1R523 = details: Citrobacter freundii, 1R523
E. cloacae 1V247 = type: cell-based; details: Enterobacter cloacae, Table 8
Description: (§1) The minimum inhibition concentrations (MIC) of the compounds obtained in the respective examples described above were measured according to the standard method of Japanese Chemotherapy Association.

S. aureus IAA498 = type: cell-based; details: Staphylococcus aureus, Table 7
Description: as §1

E. colacae GN7471 = details: Table 7

Row | Compound | MIC (C. freundii 1U589) | MIC (C. freundii 1R526) | MIC (E. cloacae 908RN) | MIC (S. aureus Smith) | MIC (P. aeruginosa 4au542) | MIC (C. freundii 1R524) | MIC (P. aeruginosa 5D58-1) | MIC (K. pneumoniae 4at521) | MIC (P. cepacia OF189) | MIC (P. vulgaris GN7919) | MIC (P. maltophilia OF247) | MIC (E. cloacae 5D63-2) | MIC (S. marcescens GN10857) | MIC (C. freundii GN7391) | MIC (C. freundii 1R527) | MIC (C. freundii 1U692) | MIC (C. freundii 5D60-1) | MIC (E. coli GN5482) | MIC (P. aeruginosa GN10362) | MIC (E. coli ML4707) | also measured
1 | Cc1cc(SCC2=C(C(=O)O)N3C(=O)C(NC(=O)C(=NOC(C)(C)C(=O)NNC(=O)c4ccc(O)c(O)c4)c4csc(N)n4)[C@H]3SC2)n2nc(C)cc2n1 (stereo partly drawn) [Example 57, 7-{2-[2-Amino-1,3-thiazol-4-yl]-2-[1-(3-(3,4-dihydroxybenzoyl)carbazoyl)-1-methylethoxyimino]acetamido}-3-[(2,5-dimethylpyrazolo[1,5-a]pyrimidin-7yl)thiomethyl]-3-cephem-4-carboxylic acid] | 3.13 µg/mL (≈ 3.93 µM) | 1.56 µg/mL (≈ 1.96 µM) | 0.39 µg/mL (≈ 0.489 µM) | 1.56 µg/mL (≈ 1.96 µM) | 0.1 µg/mL (≈ 0.125 µM) | 0.2 µg/mL (≈ 0.251 µM) | 0.1 µg/mL (≈ 0.125 µM) | 0.012 µg/mL (≈ 0.0151 µM) | 0.012 µg/mL (≈ 0.0151 µM) | 0.78 µg/mL (≈ 0.979 µM) | 1.56 µg/mL (≈ 1.96 µM) | 0.39 µg/mL (≈ 0.489 µM) | 1.56 µg/mL (≈ 1.96 µM) | 3.13 µg/mL (≈ 3.93 µM) | 3.13 µg/mL (≈ 3.93 µM) | 1.56 µg/mL (≈ 1.96 µM) | 1.56 µg/mL (≈ 1.96 µM) | < 0.006 µg/mL | 0.1 µg/mL (≈ 0.125 µM) | < 0.006 µg/mL | MIC (E. cloacae 1V25): 6.25 µg/mL (≈ 7.84 µM); MIC (E. cloacae 5D52-2): 0.1 µg/mL (≈ 0.125 µM); MIC (C. freundii 1R523): 0.2 µg/mL (≈ 0.251 µM); MIC (E. cloacae 1V247): 6.25 µg/mL (≈ 7.84 µM); MIC (S. aureus IAA498): 3.13 µg/mL (≈ 3.93 µM); MIC (E. colacae GN7471): 1.56 µg/mL (≈ 1.96 µM)
2 | CC(=O)Oc1ccc(C(=O)NNC(=O)C(C)(C)ON=C(C(=O)NC2C(=O)N3C(C(=O)O)=C(CSc4ccnc5nc(C(=O)O)nn45)CS[C@H]23)c2csc(N)n2)cc1OC(C)=O (stereo partly drawn) [Example 46, 7-{2-[2-Amino-1,3-thiazol-4-yl]-2-[1-(3-(3,4-diacetoxybenzoyl)carbazoyl)-1-methylethoxyimino]acetamido}-3-[(2-carboxy-s-triazolo[1,5-a]pyrimidin-7-yl)thiomethyl]-3-cephem-4-carboxylic acid] | 6.25 µg/mL (≈ 6.96 µM) | 3.13 µg/mL (≈ 3.49 µM) | 12.5 µg/mL (≈ 13.9 µM) | 12.5 µg/mL (≈ 13.9 µM) | 0.39 µg/mL (≈ 0.434 µM) | 3.13 µg/mL (≈ 3.49 µM) | 0.2 µg/mL (≈ 0.223 µM) | 0.025 µg/mL (≈ 0.0278 µM) | < 0.006 µg/mL | 12.5 µg/mL (≈ 13.9 µM) | 0.78 µg/mL (≈ 0.869 µM) | 5.25 µg/mL (≈ 5.85 µM) | 0.78 µg/mL (≈ 0.869 µM) | 100 µg/mL (≈ 111 µM) | 3.13 µg/mL (≈ 3.49 µM) | 6.25 µg/mL (≈ 6.96 µM) | 12.5 µg/mL (≈ 13.9 µM) | 0.05 µg/mL (≈ 0.0557 µM) | 0.2 µg/mL (≈ 0.223 µM) | 0.05 µg/mL (≈ 0.0557 µM) | MIC (E. cloacae 1V25): 25 µg/mL (≈ 27.8 µM); MIC (E. cloacae 5D52-2): 0.39 µg/mL (≈ 0.434 µM); MIC (C. freundii 1R523): 3.13 µg/mL (≈ 3.49 µM); MIC (E. cloacae 1V247): 25 µg/mL (≈ 27.8 µM); MIC (S. aureus IAA498): 25 µg/mL (≈ 27.8 µM); MIC (E. colacae GN7471): 0.78 µg/mL (≈ 0.869 µM)
3 | CC(C)(ON=C(C(=O)NC1C(=O)N2C(C(=O)O)=C(CSc3ccnc4nc(C(=O)O)nn34)CS[C@H]12)c1csc(N)n1)C(=O)NNC(=O)c1ccc(O)c(O)c1 (stereo partly drawn) [Example 56, 7-{2-[2-Amino-1,3-thiazol-4-yl]-2-[1-(3-(3,4-dihydroxybenzoyl)carbazoyl)-1-methylethoxyimino]acetamido}-3-[(2-carboxy-s-triazolo[1,5-a]pyrimidin-7-yl)thiomethyl]-3-cephem-4-carboxylic acid] | 6.25 µg/mL (≈ 7.68 µM) | 3.13 µg/mL (≈ 3.85 µM) | 1.56 µg/mL (≈ 1.92 µM) | 6.25 µg/mL (≈ 7.68 µM) | 0.2 µg/mL (≈ 0.246 µM) | 1.56 µg/mL (≈ 1.92 µM) | 0.05 µg/mL (≈ 0.0614 µM) | 0.025 µg/mL (≈ 0.0307 µM) | < 0.006 µg/mL | 1.56 µg/mL (≈ 1.92 µM) | 0.39 µg/mL (≈ 0.479 µM) | 1.56 µg/mL (≈ 1.92 µM) | 0.39 µg/mL (≈ 0.479 µM) | 25 µg/mL (≈ 30.7 µM) | 1.56 µg/mL (≈ 1.92 µM) | 6.25 µg/mL (≈ 7.68 µM) | 6.25 µg/mL (≈ 7.68 µM) | 0.025 µg/mL (≈ 0.0307 µM) | 0.1 µg/mL (≈ 0.123 µM) | 0.025 µg/mL (≈ 0.0307 µM) | MIC (E. cloacae 1V25): 12.5 µg/mL (≈ 15.4 µM); MIC (E. cloacae 5D52-2): 0.1 µg/mL (≈ 0.123 µM); MIC (C. freundii 1R523): 1.56 µg/mL (≈ 1.92 µM); MIC (E. cloacae 1V247): 12.5 µg/mL (≈ 15.4 µM); MIC (S. aureus IAA498): 12.5 µg/mL (≈ 15.4 µM); MIC (E. colacae GN7471): 0.39 µg/mL (≈ 0.479 µM)
